From patent publication US20100240040A1, “METHOD FOR SCREENING FOR SELECTIVE MODULATOR OF THE NF-KB PATHWAY ACTIVATION” (INSTITUT PASTEUR, priority 2007, published 2010)

Key:
[1] = target: T1, CC2-LZ dimer (Biot-CC2-LZ/His-CC2-LZ) (Mus musculus, UniProt O88522); test: HTRF assay, CC2-LZ dimerization induced by ubiquitin binding; settings: added to Biot-CC2-LZ/His-CC2-LZ mixture at nM concentration
T1 construct: made in house; Biot-CC2-LZ by chemical synthesis
Text: (§1) The Homogeneous Time Resolved Fluorescence (HTRF®) assay reagents anti-(His)6 monoclonal antibody labeled with XL665 (MABHis6-XL) and streptavidin-Europium cryptate (streptavidin-EuK) were purchased from CIS-Bio. The His-CC2-LZ peptide (SEQ ID NO: 30 and 31) was purified as described in Agou et al., 2004a and the biotin tagged CC2-LZ peptide (SEQ ID NO: 28 and 29) was chemically synthezised as described in Wyler et al., 2007.
All measurements of fluorescence resonance energy transfer (FRET) were performed using the microplate reader Mithras LB 940 (Berthold Technologies). HTRF® principle
In HTRF experiments, the pure His-CC2-LZ protein was labeled by anti-His-XL665 mAb and biot-CC2-LZ was labeled by streptavidin-EuK. […] Upon excitation of Europium cryptate at 320 nm, FRET occurs between these two fluorophores, and XL665 re-emits a specific long-lived fluorescence at 665 nm.
All experiments were carried out in a black microplate Greiner (200 μl) at 25° C. The excitation wavelength was 320 nm and the fluorescence emissions were measured at 620 nm and at 665 nm to normalize the specific signal. Fluorescence emission was recorded at both wavelengths after an 50 μs delay, which reduces background noise introduced by the media and the free acceptor molecules. The FRET signal is calculated using the following equation: […]

Biot-CC2-LZ = target: T2, Biot-CC2-LZ (Mus musculus, UniProt O88522); test: HTRF assay, complex with Biot-CC2-LZ (negative and positive controls); assay type: binding; settings: each subunit of CC2-LZ at nM concentration, no ubiquitin
T2 construct: made in house; host or cells: chemical synthesis
Text: as §1
In HTRF experiments, the pure His-CC2-LZ protein was labeled by anti-His-XL665 mAb and biot-CC2-LZ was labeled by streptavidin-EuK. Dimerization of His-CC2-LZ and Biot-CC2-LZ leads the donor (Steptavidin-EuK) and the acceptor (anti-His-XL665) into close proximity. Upon excitation of Europium cryptate at 320 nm, FRET occurs between these two fluorophores, and XL665 re-emits a specific long-lived fluorescence at 665 nm.
All experiments were carried out in a black microplate Greiner (200 μl) at 25° C. The excitation wavelength was 320 nm and the fluorescence emissions were measured at 620 nm and at 665 nm to normalize the specific signal. Fluorescence emission was recorded at both wavelengths after an 50 μs delay, which reduces background noise introduced by the media and the free acceptor molecules. The FRET signal is calculated using the following equation:
ΔF=[(R−Rneg)/Rneg]*100 (1) […]

CC2-LZ = CC2-LZ (Mus musculus, UniProt O88522); test: Affinity of CC2-LZ dimerization; assay type: binding
Sequence of CC2-LZ (O88522 250-339 limits assumed): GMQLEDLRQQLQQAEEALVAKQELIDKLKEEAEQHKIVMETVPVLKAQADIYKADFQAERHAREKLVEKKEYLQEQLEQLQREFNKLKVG

T1 sequence (O88522 with tags, fused parts or gaps, one chain of several): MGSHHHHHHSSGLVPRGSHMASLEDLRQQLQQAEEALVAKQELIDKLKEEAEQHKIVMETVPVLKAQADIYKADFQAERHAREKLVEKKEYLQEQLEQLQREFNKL

| FRET signal (in words) [1] | FRET signal (in words) (Biot-CC2-LZ) | Kd (CC2-LZ) [µM] | Substance |
| --- | --- | --- | --- |
| no FRET signal was detected |  |  | GST: GST protein alone, control |
|  | no FRET signal was observed | 22 | LEDLRQQLQQAEEALVAKQELIDKLKEEAEQHKIVMETVPVLKAQADIYKADFQAERHAREKLVEKKEYLQEQLEQLQREFNKL [CC2-LZ] |
